{"source": "patent US20240174634A1", "about": "“Aldehyde Dehydrogenase Inhibitors and Their Therapeutic Use” (priority 2020, published 2024)"}
{"molecular_target": "T1, ALDH2 (Homo sapiens, UniProt P05091)", "T1 sequence (P05091 18-517)": "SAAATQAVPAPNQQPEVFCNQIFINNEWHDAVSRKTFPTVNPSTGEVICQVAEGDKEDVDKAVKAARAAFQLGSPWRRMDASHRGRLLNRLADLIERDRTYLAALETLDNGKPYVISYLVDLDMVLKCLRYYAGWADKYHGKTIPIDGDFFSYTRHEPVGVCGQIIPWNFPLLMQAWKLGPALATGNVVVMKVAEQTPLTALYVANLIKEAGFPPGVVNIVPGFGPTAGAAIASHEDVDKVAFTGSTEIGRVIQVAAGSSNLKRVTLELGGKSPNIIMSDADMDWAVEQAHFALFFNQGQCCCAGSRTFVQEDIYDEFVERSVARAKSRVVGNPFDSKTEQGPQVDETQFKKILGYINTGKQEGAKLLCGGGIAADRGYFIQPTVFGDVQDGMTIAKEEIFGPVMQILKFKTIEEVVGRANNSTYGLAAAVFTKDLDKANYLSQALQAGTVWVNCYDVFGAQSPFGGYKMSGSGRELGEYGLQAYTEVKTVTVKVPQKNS", "test": "Selectivity biochemical assay, NAD(P)H-Glo Detection System", "description": "Materials: ALDH2 was purchased from Abnova. Tris(hydroxymethyl)aminomethane (Tris) was purchased from MP Biomedicals. TCEP, ethylenediaminetetraacetic acid (EDTA), propionaldehyde, DMSO and Tween-20 were purchased from Sigma. Nicotinamide adenine dinucleotide (NAD) was obtained from Abcam. The NAD(P)H-Glo™ Detection System was purchased from Promega. White, non-binding surface, 384 well plates were supplied by Corning (#3574).\nMethod: Inhibition of ALDH1A3 was assessed using the NAD(P)H-Glo™ Detection System (Cat. No. G9062) from Promega. This assay detects the production of NADH from NAD by ALDH1A3 via the coupled enzymatic conversion of a proluciferin reductase substrate to generate a luminescent signal. Inhibition of ALDH1A3 by small molecule inhibitors will result in reduction or abrogation of luminescence signal increase above background. Inhibition of ALDH1A1, ALDH1A2 and ALDH2 (selectivity assays) were assessed using the same assay.\nCompounds were dosed into Corning 384 well assay plates using an Echo acoustic dispenser to give 10 point curves in a 3-fold dilution series. Compounds were dispensed from a 20 mM DMSO stock and initially screened at a top concentration of 20 μM (ALDH1A3) or 250 μM (ALDH1A1, ALDH1A2 & ALDH2). Enzyme was added to the plate in a 5 μL volume, according to the final concentrations in table 1 below, and pre-incubated with compound for 30 minutes at room temperature before the addition of 5 μL of the substrate (propionaldehyde) and cofactor (NAD), to effect final concentrations equal to the Km as shown in Table 1. The assay buffer used consisted of 40 mM Tris for 1A1 (pH 7.6), 1A2 (pH 7.6) and 1A3 (pH 9.0) and 10 mM Tris for ALDH2 (pH 8.0) supplemented with 1 mM TCEP, 0.01% Tween-20, 0.1 mM EDTA. The reaction mix was incubated at 26° C. on a shaking incubator for 30 minutes before being stopped by the addition of 10 μL of the Promega detection reagent and 100×IC50 of inhibitors of the respective isoforms. After stopping the reaction the plate was incubated for 60 minutes at room temperature and the luminescence signal read on a PheraStar FS microplate reader (BMG Labtech) and resulting IC50 values were calculated using Dotmatics software.\nEnzyme, substrate and cofactor concentrations were selected to ensure the reaction ran under initial velocity conditions.", "units": {"IC50": "µM"}}
{"smiles": "O=C1CCc2cc(OCCN(CCO)Cc3cccc(F)c3)ccc2N1", "note": "[ALDHI-3002, 6-[2-[(3-fluorophenyl)methyl-(2-hydroxyethyl)amino]ethoxy]-3,4-dihydro-1H-quinolin-2-one]", "IC50": "≥ 100"}
{"smiles": "C[C@H](c1ccccc1)N(CCO)CCOc1ccc2c(c1)CCC(=O)N2", "note": "[ALDHI-3006, 6-[2-[2-hydroxyethyl-[(1R)-1-phenylethyl]amino]ethoxy]-3,4-dihydro-1H-quinolin-2-one]", "IC50": "≥ 100"}
{"smiles": "CC1Cc2cc(OCCN3CCCC3c3cccc(F)c3)ccc2NC1=O", "note": "(centres unmarked) [ALDHI-2048, 6-[2-[2-(3-fluorophenyl)pyrrolidin-1-yl]ethoxy]-3-methyl-3,4-dihydro-1H-quinolin-2-one]", "IC50": "≥ 100"}
{"smiles": "O=C1CCc2cc(NC(=O)c3scnc3-c3ccc(F)cc3)ccc2N1", "note": "[ALDHI-1017, 4-(4-fluorophenyl)-N-(2-oxo-1,2,3,4-tetrahydroquinolin-6-yl)thiazole-5-carboxamide]", "IC50": "≥ 100"}
{"smiles": "O=C1CCc2cc(OCCN3CCCC3c3ccccc3F)ccc2N1", "note": "(centres unmarked) [ALDHI-2002, 6-[2-[2-(2-fluorophenyl)pyrrolidin-1-yl]ethoxy]-3,4-dihydro-1H-quinolin-2-one]", "IC50": "≥ 100"}
{"smiles": "CCN(CC)CCN(CCOc1ccc2c(c1)CCC(=O)N2)Cc1ccccc1", "note": "[ALDHI-3004, 6-[2-[benzyl-[2-(diethylamino)ethyl]amino]ethoxy]-3,4-dihydro-1H-quinolin-2-one]", "IC50": "≥ 100"}
{"smiles": "CCC1Oc2cc(OCCN3CCCC3c3cccc(F)c3)ccc2NC1=O", "note": "(centres unmarked) [ALDHI-2045, 2-ethyl-7-[2-[2-(3-fluorophenyl)pyrrolidin-1-yl]ethoxy]-4H-1,4-benzoxazin-3-one]", "IC50": "≥ 100"}
{"smiles": "O=C1CSc2cc(OCCN3CCCC3c3cccc(F)c3)ccc2N1", "note": "(centres unmarked) [ALDHI-2008, 7-[2-[2-(3-fluorophenyl)pyrrolidin-1-yl]ethoxy]-4H-1,4-benzothiazin-3-one]", "IC50": "≥ 100"}
{"smiles": "O=C1CCc2cc(NC(=O)c3sc(N4CCOCC4)nc3-c3cccc(F)c3)ccc2N1", "note": "[ALDHI-1001, 4-(3-fluorophenyl)-2-morpholino-N-(2-oxo-3,4-dihydro-1H-quinolin-6-yl)thiazole-5-carboxamide]", "IC50": "≥ 100"}
{"smiles": "CC1(c2cccc(F)c2)CCCN1CCOc1ccc2c(c1)CCC(=O)N2", "note": "(centres unmarked) [ALDHI-2037, 6-[2-[2-(3-fluorophenyl)-2-methyl-pyrrolidin-1-yl]ethoxy]-3,4-dihydro-1H-quinolin-2-one]", "IC50": "≥ 100"}
{"smiles": "O=C1CCc2cc(NC(=O)c3scnc3-c3cccc(F)c3)ccc2N1", "note": "[ALDHI-1003, 4-(3-fluorophenyl)-N-(2-oxo-3,4-dihydro-1H-quinolin-6-yl)thiazole-5-carboxamide]", "IC50": "≥ 100"}
{"smiles": "O=C1CCc2cc(OCCN3CCCC3c3cccc(F)c3)ccc2N1", "note": "(centres unmarked) [ALDHI-2001, 6-[2-[2-(3-fluorophenyl)pyrrolidin-1-yl]ethoxy]-3,4-dihydro-1H-quinolin-2-one]", "IC50": "≥ 100"}
{"smiles": "O=C1CCc2cc(OCCN3CCCC3c3ccccn3)ccc2N1", "note": "(centres unmarked) [ALDHI-2006, 6-[2-[2-(2-pyridyl)pyrrolidin-1-yl]ethoxy]-3,4-dihydro-1H-quinolin-2-one]", "IC50": "≥ 100"}
{"smiles": "O=C1CCc2cc(OCCN3CCC[C@H]3c3cccc(F)c3)ccc2N1", "note": "[ALDHI-2018, 6-[2-[(2S)-2-(3-fluorophenyl)pyrrolidin-1-yl]ethoxy]-3,4-dihydro-1H-quinolin-2-one]", "IC50": "≥ 100"}
{"smiles": "CC1CN(CCOc2ccc3c(c2)CCC(=O)N3)C(c2ccccc2)CO1", "note": "(mixture of isomers) [ALDHI-2042, 6-[2-(2-methyl-5-phenyl-morpholin-4-yl)ethoxy]-3,4-dihydro-1H-quinolin-2-one]", "IC50": "≥ 100"}
{"smiles": "O=C1CCc2cc(NC(=O)c3ncsc3-c3cccnc3)ccc2N1", "note": "[ALDHI-1010, N-(2-oxo-3,4-dihydro-1H-quinolin-6-yl)-5-(3-pyridyl)thiazole-4-carboxamide]", "IC50": "≥ 100"}
{"smiles": "O=C1CSc2cc(OCCN3CCCC3c3cccnc3)ccc2N1", "note": "(centres unmarked) [ALDHI-2028, 7-[2-[2-(3-pyridyl)pyrrolidin-1-yl]ethoxy]-4H-1,4-benzothiazin-3-one]", "IC50": "≥ 100"}
